In patent US10065965B2, “Imidazo[1,2-B][1,2,4]triazine derivatives as antiparasitic agents” (GlaxoSmithKline Intellectual Property Development Limited, priority 2015, dated 2018):

What was measured:
Format in all cases: cell-based
[1] = Assay 2 Trypanosoma cruzi intracellular assay, cytotoxicity against VERO cells; conditions: African green monkey, Vero cells infected with T. cruzi trypomastigotes, total number of Vero cells, minimum threshold 4.3, read-out: cytotoxicity against VERO cells, pEC50 (converted)
Protocol: Compounds were dispensed into black 384-well assay plates (Corning) by acoustic dispensing (LabCyte ECHO). For potency determinations, ten-point one in three dilution curves were generated, with a top concentration of 50 μM. Vero cells were infected overnight with T. cruzi trypomastigotes in T225 tissue culture flasks at a multiplicity of infection of 5. Next, any remaining free trypomastigotes were washed away with serum free MEM media and the infected Vero cells were harvested by trypsinisation. The infected Vero cells were then plated into 384-well plates containing the compounds to be tested, at 4000 cells per well in MEM media with 1% FCS. After 72 h incubation at 37° C. in presence of 5% CO2, the plates were fixed with 4% formaldehyde for 20 minutes at room temperature and stained with 5 μg/ml Hoechst 33342. The plates were imaged on a Perkin Elmer Operetta high-content imaging system using a 20× objective. Images were analysed using the Columbus system (Perkin Elmer). The image analysis algorithm first identified the Vero nuclei followed by demarcation of the cytoplasm and identification of intracellular amastigotes. This algorithm reported mean number of parasites per Vero cell and total number of Vero cells.

Trypanosoma brucei = assay: Assay 3 Trypanosoma brucei cell growth inhibition assay; conditions: T. b. brucei BSF427, 69 h + 4 h resazurin, maximum threshold 8.0, read-out: pEC50 value against Trypanosoma brucei (converted)
Protocol: Measurement of the ability of the compounds to inhibit trypanosome (T. b. brucei, BSF427, VSG118) cell growth was performed using a modification of the cell viability assay previously described by Raz et al. (Raz B.; Iten M.; Grether-Buhler Y.; Kaminski R.; Brun R. The Alamar Blue assay to determine drug sensitivity of African trypanosomes (T. b. rhodesiense and T. b. gambiense) in vitro. Acta Trop. 1997, 68, 139-147). Compounds were dissolved in DMSO at a top concentration of 10 mM and serially diluted in half log steps to achieve a range of final assay concentrations of 50 μM to 0.5 nM. Compound at each concentration (200-fold final) was added to clear 96-well tissue culture plates in a volume of 1 μL. Then 2000 cells per well in relevant growth medium (HMI-9T for T. brucei, a modification of HMI-9 as described by Hurumi et al. (Hirumi H.; Hirumi K. Continuous cultivation of Trypanosoma brucei blood stream forms in a medium containing a low concentration of serum-protein without feeder cell-layers. J. Parasitol. 1989, 75, 985-989.) where 0.2 mM 2-mercaptoethanol was replaced with 0.056 mM thiolglycerol, and MEM with 10% FBS for MRC5) were then added to columns 1-11 of the plates in a volume of 199 μL. To column 12, 200 μL of medium was added to provide a no cells control. Plates were then incubated at 37° C. in an atmosphere of 5% CO2 for 69 h, before the addition of 20 μL of 500 μM rezasurin solution, and a further incubation period of 4 h. Plates were then read on a BioTek flx800 fluorescent plate reader, and percentage inhibition was compared to the maximum and minimum assay controls. Concentration effect curves were fitted using nonlinear regression using XLFit 4.2 and EC50 values determined.

Leishmania donovani = assay: Assay 5 Leishmania donovani intracellular assay (eGFP amastigotes in THP-1 cells); conditions: 96 h, read-out: pEC50 value against Leishmania donovani (converted)
Protocol: Compounds were dispensed into black 384-well assay plates (Greiner) by acoustic dispensing (LabCyte ECHO). For potency determinations, eleven-point, one in three dilution curves were generated, with a top concentration of 50 μM. THP-1 human monocytes cells were dispensed in T225 tissue culture flasks and differentiated using 30 nM of PMA, after 24 hours they were infected overnight using Leishmania donovani expressing Green Fluorescent Protein (eGFP) amastigotes in the same T225 tissue culture flasks at a multiplicity of infection of 10. Next, any remaining free amastigotes were washed away with PBS and the infected THP-1 cells were harvested by trypsinisation. The infected cells were then plated into 384-well plates containing the compounds to be tested, at 3000 cells per well in RPMI media with 2% FBS and 25 mM Sodium bicarbonate. After 96 h incubation at 37° C. in presence of 5% CO2, the plates were fixed with 4% formaldehyde for 30 minutes, washed with PBS and stained with 0.1 mg/mL of DAPI for 30 minutes and washed again with PBS. The plates were imaged on a Perkin Elmer Opera high-content imaging system using a 20× air objective with two expositions, one for DAPI stain and other for eGFP. Images were analysed using the Acapella building blocks system (Perkin Elmer). […]

[2] = Assay 5 Leishmania donovani intracellular assay, cytotoxicity against THP-1 cells; conditions: human, total number of THP-1 cells, minimum threshold 4.3, read-out: cytotoxicity against THP-1 cells, pEC50 value (converted)
In short: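 PMA-differentiated THP-1 cells infected overnight with eGFP L. donovani amastigotes (MOI 10), then exposed 96 h at 37 °C to 11-point 1:3 dilutions from 50 μM. After fixation and DAPI staining, high-content imaging scored parasites per cell, % infected cells and total THP-1 count.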

[3] = Assay 6 Trypanosoma cruzi intracellular assay, cytotoxicity against H9c2 cells; conditions: rat, H9C2 cardiomyocytes infected with T. cruzi trypomastigotes, total number of H9C2 cells, minimum threshold 4.3, read-out: cytotoxicity against H9c2 cells, pEC50 (converted)
Protocol: Compounds were dispensed into black 384-well assay plates (Greiner) by acoustic dispensing (LabCyte ECHO). For potency determinations, eleven-point, one in three dilution curves were generated, with a top concentration of 50 μM. H9C2 rat cardiomyocytes cells were dispensed in T225 tissue culture flasks and after 4 hours they were infected during 18 hours with T. cruzi trypomastigotes in the same T225 tissue culture flasks at a multiplicity of infection of 1. Next, any remaining free trypomastigotes were washed away with PBS and the infected H9C2 cells were harvested by trypsinisation. The infected H9C2 cells were then plated into 384-well plates containing the compounds to be tested, at 2500 cells per well in DMEM media with 2% FBS, 1% Penicillin/Streptomocin, 2 mM L-Glutamine, 1 mM Na Pyruvate and 25 mM HEPES. After 72 h incubation at 37° C. in presence of 5% CO2, the plates were fixed and stained with 4% formaldehyde and 2 μM Draq5 for 3 hours at room temperature. The plates were imaged on a Perkin Elmer Opera high-content imaging system using a 20× air objective. Images were analysed using the Acapella building blocks system (Perkin Elmer). The image analysis algorithm first identified the H9C2 nuclei followed by demarcation of the cytoplasm and identification of intracellular amastigotes. This algorithm reported mean number of parasites per H9C2 cell, the percentage of infected H9C2 cells and the total number of H9C2 cells.

O=C(Nc1ccc(F)c(-c2cn3nc(N4CCOCC4)cnc3n2)c1)N1CCCC1 [Example 1, N-(4-fluoro-3-(2-morpholinoimidazo[1,2-b][1,2,4]triazin-6-yl)phenyl)pyrrolidine-1-carboxamide]
EC50 at 72 h [1]: > 50.1 µM | EC50 (Trypanosoma brucei): < 0.01 µM | EC50 (Leishmania donovani): 0.158 µM | EC50 at 96 h [2]: > 50.1 µM | EC50 at 72 h [3]: > 50.1 µM
